Test results from PubChem BioAssay AID330 (DTP/NCI, 2004).
Several values for one entry are separate records, joined by “and”; a condition that tells them apart may be missing. Equal values may be shown once. Inconclusive results and toxic doses are left out. Rule for the calls: active = survival T/C of 150% or more; inactive = T/C below 125% in these data.

Tested on: P388 leukemia ip, CD2F1 mice, survival T/C
Experiment: NCI In Vivo Anticancer Drug Screen. Data for tumor model P388 Leukemia (intraperitoneal) in CD2F1 (CDF1) mice
Conditions: endpoint: median survival time, higher = longer survival
In short: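 Mice carrying the transplanted tumor received test compound or vehicle. Survival was recorded in each group, and the value is the treated-group measurement divided by that of the vehicle-treated control group.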

[1] = dose: 50.0 mg/kg/injection, schedule: Q01DX009 (ip), vehicle: Klucel (hydroxypropylcellulose) (HPC)
[2] = dose: 100.0 mg/kg/injection, schedule: Q01DX009 (ip), vehicle: Klucel (hydroxypropylcellulose) (HPC)
[3] = dose: 200.0 mg/kg/injection, schedule: Q01DX009 (ip), vehicle: Klucel (hydroxypropylcellulose) (HPC)
[4] = dose: 60.0 mg/kg/injection, schedule: Q01DX005 (ip), vehicle: saline with Tween-80
[5] = dose: 50.0 mg/kg/injection, schedule: Q01DX005 (ip), vehicle: saline with Tween-80
[6] = dose: 100.0 mg/kg/injection, schedule: Q01DX005 (ip), vehicle: saline with Tween-80
[7] = dose: 200.0 mg/kg/injection, schedule: Q01DX005 (ip), vehicle: saline with Tween-80
[8] = dose: 100.0 mg/kg/injection, schedule: Q01DX001 (ip), vehicle: saline with Tween-80
[9] = dose: 200.0 mg/kg/injection, schedule: Q01DX001 (ip), vehicle: saline with Tween-80
[10] = dose: 400.0 mg/kg/injection, schedule: Q01DX001 (ip), vehicle: saline with Tween-80
[11] = dose: 25.0 mg/kg/injection, schedule: Q01DX009 (ip), vehicle: saline
[12] = dose: 50.0 mg/kg/injection, schedule: Q01DX009 (ip), vehicle: saline with Tween-80
[13] = dose: 50.0 mg/kg/injection, schedule: Q01DX009 (ip), vehicle: saline
[14] = dose: 120.0 mg/kg/injection, schedule: Q01DX005 (ip), vehicle: saline with Tween-80
[15] = dose: 100.0 mg/kg/injection, schedule: Q01DX009 (ip), vehicle: saline with Tween-80
[16] = dose: 200.0 mg/kg/injection, schedule: Q01DX009 (ip), vehicle: saline with Tween-80
[17] = dose: 50.0 mg/kg/injection, schedule: Q01DX005 (ip), vehicle: Klucel (hydroxypropylcellulose) (HPC)
[18] = dose: 100.0 mg/kg/injection, schedule: Q01DX005 (ip), vehicle: Klucel (hydroxypropylcellulose) (HPC)
[19] = dose: 200.0 mg/kg/injection, schedule: Q01DX005 (ip), vehicle: Klucel (hydroxypropylcellulose) (HPC)

Measured: T/C

COc1ccc2c(c1)nc1c([n+]2/N=C(\[O-])CCN(C)C)-c2cccc3cccc-1c23
inactive: [1] 110 % of control | [2] 111 % of control | [3] 116 % of control

CC(C)=CCCc1ccc2c(c1)C(=O)c1cc3c(cc1C2=O)OCO3
inactive: dose: 3.75 mg/kg/injection, schedule: Q01DX005 (ip), vehicle: saline with Tween-80 101 % of control | dose: 7.5 mg/kg/injection, schedule: Q01DX005 (ip), vehicle: saline with Tween-80 91 % of control | dose: 15.0 mg/kg/injection, schedule: Q01DX005 (ip), vehicle: saline with Tween-80 98 % of control and 104 % of control | [4] 87 % of control

CC(=O)c1ccc(-c2ccccc2)cc1
inactive: dose: 100.0 mg/kg/injection, schedule: Q04DX003 (ip), vehicle: saline with Tween-80 91 % of control | dose: 200.0 mg/kg/injection, schedule: Q04DX003 (ip), vehicle: saline with Tween-80 91 % of control | dose: 400.0 mg/kg/injection, schedule: Q04DX003 (ip), vehicle: saline with Tween-80 95 % of control

COc1cccc(-c2nc(SCC(N)=O)[nH]c(=O)c2C#N)c1
inactive: [5] 112 % of control | [6] 98 % of control | [7] 98 % of control

CSC(=S)NNC(C)c1nccc2ccccc12 (stereo not drawn)
inactive: [5] 109 % of control | [6] 114 % of control | [7] 108 % of control

CCCCCc1cc(O)c2c3c(c(=O)oc2c1)CP(=O)(c1ccccc1)CC3 (stereo not drawn)
inactive: [8] 102 % of control | [9] 98 % of control | [10] 90 % of control

CCOC(=O)c1cc(-c2ccccn2)c(=O)n2ccccc12
inactive: dose: 12.5 mg/kg/injection, schedule: Q01DX009 (ip), vehicle: saline 108 % of control | [11] 107 % of control | [12] 100 % of control | [13] 100 % of control

CCc1cccc(CC)c1NC(=O)c1ccc(C)cc1
inactive: [4] 91 % of control | [14] 86 % of control

NC(c1ccccc1)S(=O)(=O)O (stereo not drawn)
inactive: [11] 121 % of control | [13] 121 % of control | dose: 66.7 mg/kg/injection, schedule: Q01DX009 (ip), vehicle: saline with Tween-80 92 % of control | dose: 100.0 mg/kg/injection, schedule: Q01DX001 (ip), vehicle: saline 100 % of control | [15] 88 % of control | dose: 100.0 mg/kg/injection, schedule: Q01DX009 (ip), vehicle: saline 122 % of control | dose: 150.0 mg/kg/injection, schedule: Q01DX009 (ip), vehicle: saline with Tween-80 91 % of control | dose: 200.0 mg/kg/injection, schedule: Q01DX001 (ip), vehicle: saline 100 % of control | dose: 200.0 mg/kg/injection, schedule: Q01DX009 (ip), vehicle: saline 121 % of control | dose: 400.0 mg/kg/injection, schedule: Q01DX001 (ip), vehicle: saline 100 % of control

COC1(Cl)CC1C#N (stereo not drawn)
inactive: [12] 117 % of control | [15] 96 % of control | [16] 105 % of control

Nc1nnc(COc2ccc(Cl)cc2)n1N
inactive: [4] 107 % of control | [14] 108 % of control

Cc1ccc(/C=N/O)cc1
inactive: dose: 25.0 mg/kg/injection, schedule: Q01DX005 (ip), vehicle: Klucel (hydroxypropylcellulose) (HPC) 97 % of control | [17] 98 % of control | [18] 99 % of control | [19] 98 % of control

O=[N+]([O-])c1ccccc1N=NNc1ccccc1
inactive: [1] 95 % of control | [2] 91 % of control | [3] 104 % of control

Cc1nc2c(cnn2C)c(=O)n1C
inactive: [17] 111 % of control | [18] 111 % of control | [19] 111 % of control

N#CC(C(=O)CCC(=O)C(C#N)c1nc2ccccc2s1)c1nc2ccccc2s1 (stereo not drawn)
inactive: [8] 89 % of control | [9] 88 % of control | [10] 91 % of control

COc1cc2c3c(cccc3c1)C(=O)N(CCN(C)C)C2=O
inactive: dose: 9.5 mg/kg/injection, schedule: Q01DX009 (ip), vehicle: saline with Tween-80 110 % of control

COC1/C=C/OC2(C)Oc3c(C)c(O)c4c(c3C2=O)C(=O)C([N+](=O)[O-])=C(NC(=O)C(C)=C/C=C\C(C)C(O)C(C)C(O)C(C)C(OC(C)=O)C1C)C4=O (stereo not drawn)
inactive: [2] 90 % of control | [3] 98 % of control

C/C=C(/C)C(=O)OC1CC(C)=CC(OC(=O)/C(C)=C\C)[C@]2(C)C1[C@](O)(C(C)C)C[C@H]2O (stereo partly drawn)
inactive: dose: 2.0 mg/kg/injection, schedule: Q01DX005 (ip), vehicle: Klucel (hydroxypropylcellulose) (HPC) 106 % of control | dose: 4.0 mg/kg/injection, schedule: Q01DX005 (ip), vehicle: Klucel (hydroxypropylcellulose) (HPC) 96 % of control | dose: 8.0 mg/kg/injection, schedule: Q01DX005 (ip), vehicle: Klucel (hydroxypropylcellulose) (HPC) 99 % of control | dose: 16.0 mg/kg/injection, schedule: Q01DX005 (ip), vehicle: Klucel (hydroxypropylcellulose) (HPC) 99 % of control

Cc1cc(C(=C2C=CC(=Nc3ccc(S(=O)(=O)O)cc3)C=C2)c2ccc(Nc3ccc(S(=O)(=O)O)cc3)cc2)cc(S(=O)(=O)O)c1N
inactive: dose: 50.0 mg/kg/injection, schedule: Q01DX005 (ip), vehicle: suspension in saline 102 % of control | dose: 100.0 mg/kg/injection, schedule: Q01DX005 (ip), vehicle: suspension in saline 99 % of control | dose: 200.0 mg/kg/injection, schedule: Q01DX005 (ip), vehicle: suspension in saline 99 % of control

CC(OC(=O)Nc1cccc2ccccc12)C(N)=O (stereo not drawn)
inactive: dose: 100.0 mg/kg/injection, schedule: Q04DX003 (ip), vehicle: Klucel (hydroxypropylcellulose) (HPC) 91 % of control | dose: 200.0 mg/kg/injection, schedule: Q04DX003 (ip), vehicle: Klucel (hydroxypropylcellulose) (HPC) 95 % of control | dose: 400.0 mg/kg/injection, schedule: Q04DX003 (ip), vehicle: Klucel (hydroxypropylcellulose) (HPC) 96 % of control

CC1(C)C2CC=C(CCOC(=S)S)C1C2.[Ni] (stereo not drawn)
inactive: dose: 25.0 mg/kg/injection, schedule: Q01DX009 (ip), vehicle: saline with Tween-80 90 % of control

COc1ccc(N=C2C(=Nc3ccc(OC)cc3)N(S(=O)(=O)c3ccc(C)cc3)C(=S)N2c2ccccc2)cc1
inactive: dose: 50.0 mg/kg/injection, schedule: Q01DX005 (ip), vehicle: Klucel + Tween-80 100 % of control | dose: 100.0 mg/kg/injection, schedule: Q01DX005 (ip), vehicle: Klucel + Tween-80 98 % of control

Cc1nc2ncn(-c3ccccc3)c2c(=O)n1-c1cccnc1
inactive: [17] 105 % of control | [18] 110 % of control | [19] 110 % of control

Cc1cccc(C2=Nc3ccccc3N3CC=CC=C23)c1
inactive: [12] 110 % of control | [15] 97 % of control | [16] 92 % of control

COCCO[Si](OCCOC)(OCCOC)c1ccccc1
inactive: [1] 101 % of control | [2] 107 % of control | [3] 117 % of control
